Source: patent US20160297768A1, “NOVEL IMIDAZOLE DERIVATIVES AND THERAPEUTIC USE THEREOF” (INDUSTRY-ACA-DEMIC COORPERATION FOUNDATION, YONSEI …, priority 2013, published 2016)

Assays:
HeLa cells = assay: Apoptotic activity by MTT analysis, HeLa cells; format: cell-based; conditions: 15 μM of the compound, mean±standard deviation; for cytotoxicity at 15 µM: Homo sapiens, HeLa, 12 h, read-out: Apoptosis (%) HeLa cells; for Apoptosis (%) HeLa cells: 12 hours
Description: (§1) Lung cancer cells (A549), colorectal cancer cells (HCT116), HeLa cells, liver cancer cells (HepG2), T-cell leukemia cells (Jurkat), myeloid leukemia cells (K562), breast cancer cells (MCF-7 and MDA-MB-231) and myelocytic leukemia cells ([…]) were obtained from the American Type Culture Collection (ATCC), and cultured in 10% fetal bovine serum (FBS), 50 units/mL penicillin and 50 units/mL streptomycin-added RPMI 1640 (Invitrogen). The cells were maintained in a humidified 37° C., 5% CO2 atmosphere. The anticancer activity was detected by MTT analysis. Each type of cancer cells were plated in triplicate in a 96-well microtiter plate, and cultured at 37° C. for 24 hours. The cells were treated with each of the compounds prepared above at 37° C. for 12 hours. After the culturing of the cells, 10 μL of an MTT reagent ((3-[4,5-dimethyl-2-thiazolyl]-2,5-diphenyl-2H-tetrazoliumbromide) was added to each well, and cultured for 3.5 hours. The absorbance of each sample was detected using a UV microplate reader (SpectraMax 340PC 384, Molecular Devices) at 570 nm. The detection results were measured as a mean value. The effect of each compound on apoptosis is shown in Table 1.
(§2) The A549 and HeLa cells were treated with 15 μM of the compound for 12 hours. The apoptosis was detected using MTT (mean±standard deviation).

A549 cells = assay: Apoptotic activity by MTT analysis, A549 cells; format: cell-based; conditions: 15 μM of the compound, mean±standard deviation; for cytotoxicity at 15 µM: Homo sapiens, A549, 12 h, read-out: Apoptosis (%) A549 cells; for Apoptosis (%) A549 cells: 12 hours
Description: as §1, §2

Compound | cytotoxicity at 15 µM (HeLa cells) [%] | cytotoxicity at 15 µM (A549 cells) [%] | Apoptosis (%) HeLa cells (HeLa cells) [%] | Apoptosis (%) A549 cells (A549 cells) [%]
COc1ccc(-c2nc(-c3cc(OC)cc(OC)c3)n(Cc3ccc(C(=O)NCCOCCOCCN)cc3)c2-c2ccc(OC)cc2)cc1 [Example 46, N-(2-(2-(2-aminoethoxy)ethoxy)ethyl)-4-((2-(3,5-dimethoxyphenyl)-4,5-bis(4-methoxyphenyl)-1H-imidazole-1-yl)methyl)benzamide] | 48 ± 0.28 | 37 ± 1.34 | – | –
Cc1ccc(-c2nc(-c3cccc(C(F)(F)F)c3)n(Cc3ccc(C(=O)NCCOCCOCCN)cc3)c2-c2ccc(C)cc2)cc1 [Example 35, N-(2-(2-(2-aminoethoxy)ethoxy)ethyl)-4-((4,5-ditolyl-2-(3-(trifluoromethyl)phenyl)-1H-imidazole-1-yl)methyl)benzamide] | 87 ± 1.68 | 64 ± 1.36 | – | –
COc1ccc(-c2nc(-c3cc(C(F)(F)F)cc(C(F)(F)F)c3)n(Cc3ccc(C(=O)NCCOCCOCCO)cc3)c2-c2ccc(OC)cc2)cc1 [Example 195, 4-((2-(3,5-bis(trifluoromethyl)phenyl)-4,5-bis(4-methoxyphenyl)-1H-imidazole-1-yl)methyl)-N-(2-(2-(2-hydroxyethoxy)ethoxy)ethyl)benzamide] | 96 ± 0.98 | 86 ± 1.29 | – | –
COCCOC(=O)c1ccc(Cn2c(-c3cc(C(F)(F)F)cc(C(F)(F)F)c3)nc(-c3ccc(OC)cc3)c2-c2ccc(OC)cc2)cc1 [Example 122, 2-methoxyethyl 4-((2-(3,5-bis(trifluoromethyl)phenyl)-4,5-bis(4-methoxyphenyl)-1H-imidazole-1-yl)methyl)benzoate] | 57 ± 0.77 | 58 ± 0.28 | – | –
NCCOCCOCCNC(=O)c1ccc(Cn2c(-c3cc(C(F)(F)F)cc(C(F)(F)F)c3)nc(-c3ccc(F)cc3)c2-c2ccc(F)cc2)cc1 [Example 188, N-(2-(2-(2-aminoethoxy)ethoxy)ethyl)-4-((2-(3,5-bis(trifluoromethyl)phenyl)-4,5-bis(4-fluorophenyl)-1H-imidazole-1-yl)methyl)benzamide] | 19 ± 0.65 | 12 ± 0.24 | – | –
NCCOCCOCCNC(=O)c1ccc(Cn2c(-c3cc(C(F)(F)F)cc(C(F)(F)F)c3)nc(-c3ccc4ccccc4c3)c2-c2ccc3ccccc3c2)cc1 [Example 105, N-(2-(2-(2-aminoethoxy)ethoxy)ethyl)-4-((2-(3,5-bis(trifluoromethyl)phenyl)-4,5-di(naphthalene-2-yl)-1H-imidazole-1-yl)methyl)benzamide] | 49 ± 0.41 | 39 ± 0.48 | – | –
COc1ccc(-c2nc(-c3cc(O)cc(O)c3)n(Cc3ccc(C(N)=O)cc3)c2-c2ccc(OC)cc2)cc1 [Example 107, 4-((2-(3,5-dihydroxyphenyl)-4,5-bis(4-methoxyphenyl)-1H-imidazole-1-yl)methyl)benzamide] | 0 | 16 ± 0.3 | – | –
COCCNC(=O)c1ccc(Cn2c(-c3cc(C(F)(F)F)cc(C(F)(F)F)c3)nc(-c3ccc(OC)cc3)c2-c2ccc(OC)cc2)cc1 [Example 121, 4-((2-(3,5-bis(trifluoromethyl)phenyl)-4,5-bis(4-methoxyphenyl)-1H-imidazole-1-yl)methyl)-N-(2-methoxyethyl)benzamide] | 19 ± 1.06 | 13 ± 0.38 | – | –
COc1ccc(-c2nc(-c3cc(C(F)(F)F)cc(C(F)(F)F)c3)n(Cc3ccc(C(=O)NCCCOCCOCCCN)cc3)c2-c2ccc(OC)cc2)cc1 [Example 198, N-(3-(2-(3-aminopropoxy)ethoxy)propyl)-4-((2-(3,5-bis(trifluoromethyl)phenyl)-4,5-bis(4-methoxyphenyl)-1H-imidazole-1-yl)methyl)benzamide] | 83 ± 1.07 | 80 ± 1.43 | – | –
COc1ccc(-c2nc(-c3cc(C(F)(F)F)cc(C(F)(F)F)c3)n(Cc3ccc(C(=O)NCCOCCOCCOCCN)cc3)c2-c2ccc(OC)cc2)cc1 [Example 200, N-(2-(2-(2-(2-aminoethoxy)ethoxy)ethoxy)ethyl)-4-((2-(3,5-bis(trifluoromethyl)phenyl)-4,5-bis(4-methoxyphenyl)-1H-imidazole-1-yl)methyl)benzamide] | 87 ± 0.78 | 85 ± 1.44 | – | –
COc1ccc(-c2nc(-c3cc(C(F)(F)F)cc(C(F)(F)F)c3)n(Cc3ccc(C(=O)NCCOCCCOCCN)cc3)c2-c2ccc(OC)cc2)cc1 [Example 196, N-(2-(3-(2-aminoethoxy)propoxy)ethyl)-4-((2-(3,5-bis(trifluoromethyl)phenyl)-4,5-bis(4-methoxyphenyl)-1H-imidazole-1-yl)methyl)benzamide] | 0 | 0 | – | –
NCCOCCOCCNC(=O)c1ccc(Cn2c(-c3cc(C(F)(F)F)cc(C(F)(F)F)c3)nc(-c3ccc4ncccc4c3)c2-c2ccc3ncccc3c2)cc1 [Example 106, N-(2-(2-(2-aminoethoxy)ethoxy)ethyl)-4-((2-(3,5-bis(trifluoromethyl)phenyl)-4,5-di(quinoline-6-yl)-1H-imidazole-1-yl)methyl)benzamide] | 42 ± 0.76 | 38 ± 1.28 | – | –
COc1ccc(-c2nc(-c3cc(C(F)(F)F)cc(C(F)(F)F)c3)n(CCOCCOCCN)c2-c2ccc(OC)cc2)cc1 [Example 187, 2-(2-(2-(2-(3,5-bis(trifluoromethyl)phenyl)-4,5-bis(4-methoxyphenyl)-1H-imidazole-1-yl)ethoxy)ethoxy)ethaneamine] | 12 ± 0.92 | 31 ± 0.29 | – | –
COc1ccc(-c2nc(-c3ccc(C(F)(F)F)cc3C(F)(F)F)n(Cc3ccc(C(=O)NCCOCCOCCN)cc3)c2-c2ccc(OC)cc2)cc1 [Example 44, N-(2-(2-(2-aminoethoxy)ethoxy)ethyl)-4-((2-(2,4-bis(trifluoromethyl)phenyl)-4,5-bis(4-methoxyphenyl)-1H-imidazole-1-yl)methyl)benzamide] | 31 ± 0.28 | 38 ± 0.68 | – | –
NCCOCCOCCNC(=O)c1ccc(Cn2c(-c3cc(C(F)(F)F)cc(C(F)(F)F)c3)nc(-c3ccc(Cl)cc3)c2-c2ccc(Cl)cc2)cc1 [Example 49, N-(2-(2-(2-aminoethoxy)ethoxy)ethyl)-4-((2-(3,5-bis(trifluoromethyl)phenyl)-4,5-bis(4-chlorophenyl)-1H-imidazole-1-yl)methyl)benzamide] | – | – | 26 ± 0.38 | 0 ± 1.26
COc1ccc(-c2nc(-c3cc(C(F)(F)F)cc(C(F)(F)F)c3)n(Cc3ccc(C(=O)NCCOCCN)cc3)c2-c2ccc(OC)cc2)cc1 [Example 190, N-(2-(2-aminoethoxy)ethyl)-4-((2-(3,5-bis(trifluoromethyl)phenyl)-4,5-bis(4-methoxyphenyl)-1H-imidazole-1-yl)methyl)benzamide] | 87 ± 0.62 | 72 ± 2.88 | – | –
COC(=O)c1ccc(Cn2c(-c3cc(C(F)(F)F)cc(C(F)(F)F)c3)nc(-c3ccc(OC)cc3)c2-c2ccc(OC)cc2)cc1 [Example 120, Methyl4-((2-(3,5-bis(trifluoromethyl)phenyl)-4,5-bis(4-methoxyphenyl)-1H-imidazole-1-yl)methyl)benzoate] | 53 ± 1.84 | 40 ± 0.49 | – | –
COc1ccc(-c2nc(-c3cc(OC)c(OC)c(OC)c3)n(Cc3ccc(C(=O)NCCOCCOCCN)cc3)c2-c2ccc(OC)cc2)cc1 [Example 102, N-(2-(2-(2-aminoethoxy)ethoxy)ethyl)-4-((4,5-bis(4-methoxyphenyl)-2-(3,4,5-trimethoxyphenyl)-1H-imidazole-1-yl)methyl)benzamide] | – | – | 29 ± 2.30 | 25 ± 1.92
N=C(N)c1ccc(Cn2c(-c3cc(C(F)(F)F)cc(C(F)(F)F)c3)nc(-c3ccccc3)c2-c2ccccc2)cc1 [Example 184, 4-((2-(3,5-bis(trifluoromethyl)phenyl)-4,5-diphenyl-1H-imidazole-1-yl)methyl)benzimidamide] | 79 ± 0.46 | 79 ± 0.77 | – | –
COc1ccc(-c2nc(-c3cc(OC)c(OC)c(OC)c3)n(Cc3ccc(C(=O)NCCOCCOCCN)cc3)c2-c2ccc(OC)cc2)cc1 [Example 48, N-(2-(2-(2-aminoethoxy)ethoxy)ethyl)-4-((4,5-bis(4-methoxyphenyl)-2-(3,4,5-trimethoxyphenyl)-1H-imidazole-1-yl)methyl)benzamide] | 30 ± 0.76 | 23 ± 0.68 | – | –
COc1ccc(-c2nc(-c3cc(C)cc(C)c3)n(Cc3ccc(C(=O)NCCOCCOCCN)cc3)c2-c2ccc(OC)cc2)cc1 [Example 45, N-(2-(2-(2-aminoethoxy)ethoxy)ethyl)-4-((2-(3,5-dimethylphenyl)-4,5-bis(4-methoxyphenyl)-1H-imidazole-1-yl)methyl)benzamide] | 34 ± 1.61 | 37 ± 0.5 | – | –
COc1ccc(-c2nc(-c3cc(C(F)(F)F)cc(C(F)(F)F)c3)n(Cc3ccc(C(=O)NCCCCCCCCCCCN)cc3)c2-c2ccc(OC)cc2)cc1 [Example 199, N-(11-aminoundecyl)-4-((2-(3,5-bis(trifluoromethyl)phenyl)-4,5-bis(4-methoxyphenyl)-1H-imidazole-1-yl)methyl)benzamide] | 93 ± 1.72 | 89 ± 1.63 | – | –
COc1ccc(-c2nc(-c3cc(C(F)(F)F)cc(C(F)(F)F)c3)n(Cc3ccc(C(=O)NCCCCCCCCCN)cc3)c2-c2ccc(OC)cc2)cc1 [Example 194] | 84 ± 2.01 | 80 ± 1.33 | – | –
